Values quoted from earlier work in patent publication US8158153B2, “Nanoparticulate bisphosphonate compositions” (Alkermes Pharma Ireland Limited, priority 2005, dated 2012).
“Also recorded” adds a separate entry of the source. Counter-ions that a name gives are not always drawn.

How the values were obtained:
[1] = patients; clinical use
[2] = 1% solution in distilled water

Row | Structure (SMILES) | side effects / adverse effects [1] | solubility in organic solvents (organic solvents) | solubility in water | pH of a 1% solution [2]
1 | CCCCCN(C)CCC(O)(P(=O)([O-])O)P(=O)(O)O.O.[Na+] [Ibandronate sodium, 3-(N-methyl-N-pentyl) amino-1-hydroxypropane-1,1-diphosphonic acid, monosodium salt, monohydrate] | gastrointestinal irritation | practically insoluble | freely soluble | –
2 | NCCC(O)(P(=O)([O-])O)P(=O)([O-])O.[Na+].[Na+] [Pamidronate disodium, phosphonic acid (3-amino-1-hydroxypropylidene) bis-, disodium salt, pentahydrate] | esophageal ulcers; also recorded: pain at the site of catheter insertion; also recorded: gastrointestinal pain | – | – | approximately 8.3
3 | O=P(O)(O)C(O)(Cc1cccnc1)P(=O)(O)O [Risedronate sodium, [1-hydroxy-2-(3-pyridinyl)ethylidene]bis[phosphonic acid] monosodium salt] | gastrointestinal irritation | – | – | –
4 | CC(O)(P(=O)([O-])[O-])P(=O)(O)O.[Na+].[Na+] [etidronate disodium, disodium salt of (1-hydroxyethylidene) diphosphonic acid] | – | – | highly soluble | –
